Among the data in EP1832576A1, “4-Biarylyl-1-phenolyzetidin-2-ones” (Microbia Inc., priority 2003, dated 2005) are inhibition values, retold here.

The first assay concerns cholesterol absorption from the intestine. Kind of assay: In Vivo Assay of Hypolipidemic Agents using the Rat Cholesterol Absorption Model. The arrangement: species or system Female Sprague-Dawley rats. As to conditions: po, Table 1, footnote 1, perorally, 10 mg/kg, 3H levels in serum three hours after 3H-cholesterol. Here is the method: In Vivo Assay of Hypolipidemic Agents using the Rat Cholesterol Absorption Model. This model is based on models described by Burnett et al (2002), Bioorg. Med. Chem. Lett. 2002 Feb 11;12(3):315-8 and J. Lipid Res. 1999 Oct;40(10):1747-57. Female Sprague-Dawley rats weighing 150-250g are separated into […] and fasted overnight. The animals (4-6/group) are dosed perorally with 300µL test compounds in olive oil or suitable vehicle. Thirty minutes later, 3-5 microCuries ^3H-cholesterol per rat are delivered perorally in 300 µL olive oil. After three hours, 200 µL serum is collected, vortexed with scintillation fluid, and measured for radioactivity in a scintillation counter. Percent inhibition is defined as 100*(1-Ctest/Cctrl), where Ctest and Cctrl refer to ^3H levels in serum for the test compound and for the vehicle only control, respectively. Percent inhibition values are reported for a fixed dose. The ED50 is the dose at which the half-maximal effect on serum ^3H levels is observed for a given test compound.
Representative compounds of the invention were tested in the Rat Cholesterol Absorption model above.
On to `O=C1[C@H](CC[C@H](O)c2ccc(F)cc2)[C@@H](c2ccc(-c3ccccc3)cc2)N1c1ccc(F)cc1` [Example 3, (3R,4S)-4-Biphenyl-4-yl-1-(4-fluorophenyl)-3-[(3S)-3-(4-fluorophenyl)-3-hydroxypropyl]azetidin-2-one], for which the inhibition at 10 mg/kg is 15%. Turning to `COc1ccc(-c2ccc([C@@H]3[C@@H](CC[C@H](O)c4ccc(F)cc4)C(=O)N3c3ccc(F)cc3)cc2)cc1` [Example 5, (3R,4S)-1-(4-fluorophenyl)-3-[(3S)-3-(4-fluorophenyl)-3-hydroxypropyl]-4-(4'-methoxybiphenyl-4-yl)azetidin-2-one], the inhibition at 10 mg/kg is 26%. As for `O=C1[C@H](CC[C@H](O)c2ccc(F)cc2)[C@@H](c2ccc(-c3cccc([N+](=O)[O-])c3)cc2)N1c1ccc(F)cc1` [Example 23, (3R,4S)-1-(4-fluorophenyl)-3-[(3S)-3-(4-fluorophenyl)-3-hydroxypropyl]-4-(3'-nitrobiphenyl-4-yl)azetidin-2-one], at 10 mg/kg the inhibition was 54%. On to `CC(=O)Nc1cccc(-c2ccc([C@@H]3[C@@H](CC[C@H](O)c4ccc(F)cc4)C(=O)N3c3ccc(F)cc3)cc2)c1` [Example 26, N-(4'-{(2S,3R)-1-(4-fluorophenyl)-3-[(3S)-3-(4-fluorophenyl)-3-hydroxypropyl]-4-oxoazetidin-2-yl}biphenyl-3-yl)acetamide], for which the inhibition at 10 mg/kg turned out to be 76%.

The same assay, now with this note: po, Table 1, footnote 2, perorally, 3 mg/kg, 3H levels in serum three hours after 3H-cholesterol.
`CS(=O)(=O)c1cccc(-c2ccc([C@@H]3[C@@H](CC[C@H](O)c4ccc(F)cc4)C(=O)N3c3ccc(F)cc3)cc2)c1` [Example 10, (3R,4S)-1-(4-fluorophenyl)-3-[(3S)-3-(4-fluorophenyl)-3-hydroxypropyl]-4-[3'-(methylsulfonyl)biphenyl-4-yl]azetidin-2-one] came in with an inhibition at 3 mg/kg of 54%.

Still in this assay, the particulars now being: po, Table 1, footnote 3, perorally, 5 mg/kg, 3H levels in serum three hours after 3H-cholesterol.
Turning to `N#Cc1cccc(-c2ccc([C@@H]3[C@@H](CC[C@H](O)c4ccc(F)cc4)C(=O)N3c3ccc(F)cc3)cc2)c1` [Example 14, 4'-{(2S,3R)-1-(4-fluorophenyl)-3-[(3S)-3-(4-fluorophenyl)-3-hydroxypropyl]-4-oxoazetidin-2-yl}biphenyl-3-carbonitrile], the inhibition at 5 mg/kg worked out at 32%.

Still in this assay, the particulars now being: po, Table 1, perorally, 1 mg/kg, 3H levels in serum three hours after 3H-cholesterol, versus vehicle only control.
Consider `O=C1[C@H](CC[C@H](O)c2ccc(F)cc2)[C@@H](c2ccc(-c3ccc(O)cc3)cc2)N1c1ccc(F)cc1` [Example 2, (3R,4S)-1-(4-fluorophenyl)-3-[(3S)-3-(4-fluorophenyl)-3-hydroxypropyl]-4-(4'-hydroxybiphenyl-4-yl)azetidin-2-one], for which at 1 mg/kg the inhibition was 54%.

`O=C1[C@H](CC[C@H](O)c2ccc(F)cc2)[C@@H](c2ccc(-c3cccc(O)c3)cc2)N1c1ccc(F)cc1` [Example 4, (3R,4S)-1-(4-Fluorophenyl)-3-[(3S)-3-(4-fluorophenyl)-3-hydroxypropyl]-4-(3'-hydroxybiphenyl-4-yl)azetidin-2-one] registered an inhibition at 1 mg/kg of 72%. Still for that read-out and setting: the figure for `O=C1[C@H](CC[C@H](O)c2ccc(F)cc2)[C@@H](c2ccc(-c3ccccc3O)cc2)N1c1ccc(F)cc1` [Example 7, (3R,4S)-1-(4-fluorophenyl)-3-[(3S)-3-(4-fluorophenyl)-3-hydroxypropyl]-4-(2'-hydroxybiphenyl-4-yl)azetidin-2-one] is 30%; for `CS(=O)(=O)c1ccc(-c2ccc([C@@H]3[C@@H](CC[C@H](O)c4ccc(F)cc4)C(=O)N3c3ccc(F)cc3)cc2)cc1` [Example 8, (3R,4S)-1-(4-fluorophenyl)-3-[(3S)-3-(4-fluorophenyl)-3-hydroxypropyl]-4-[4'-(methylsulfonyl)biphenyl-4-yl]azetidin-2-one] it is 53%; for `COc1cc(-c2ccc([C@@H]3[C@@H](CC[C@H](O)c4ccc(F)cc4)C(=O)N3c3ccc(F)cc3)cc2)cc(OC)c1OC` [Example 9, (3R,4S)-1-(4-fluorophenyl)-3-[(3S)-3-(4-fluorophenyl)-3-hydroxypropyl]-4-(3',4',5'-trimethoxybiphenyl-4-yl)azetidin-2-one] it is 40%. Regarding `COc1cccc(-c2ccc([C@@H]3[C@@H](CC[C@H](O)c4ccc(F)cc4)C(=O)N3c3ccc(F)cc3)cc2)c1OC` [Example 11, (3R,4S)-4-(2',3'-dimethoxybiphenyl-4-yl)-1-(4-fluorophenyl)-3-[(3S)-3-(4-fluorophenyl)-3-hydroxypropyl]azetidin-2-one], the inhibition at 1 mg/kg is 28%.

With `COc1cccc(-c2ccc([C@@H]3[C@@H](CC[C@H](O)c4ccc(F)cc4)C(=O)N3c3ccc(F)cc3)cc2)c1` [Example 12, (3R,4S)-1-(4-fluorophenyl)-3-[(3S)-3-(4-fluorophenyl)-3-hydroxypropyl]-4-(3'-methoxybiphenyl-4-yl)azetidin-2-one], at 1 mg/kg the inhibition was 70%. Same read-out and setting: the figure for `O=Cc1cccc(-c2ccc([C@@H]3[C@@H](CC[C@H](O)c4ccc(F)cc4)C(=O)N3c3ccc(F)cc3)cc2)c1` [Example 13, 4'-{(2S,3R)-1-(4-fluorophenyl)-3-[(3S)-3-(4-fluorophenyl)-3-hydroxypropyl]-4-oxoazetidin-2-yl}biphenyl-3-carbaldehyde] is 70%; for `CN(C)S(=O)(=O)c1ccc(-c2ccc([C@@H]3[C@@H](CC[C@H](O)c4ccc(F)cc4)C(=O)N3c3ccc(F)cc3)cc2)cc1` [Example 15, 4'-{(2S,3R)-1-(4-fluorophenyl)-3-[(3S)-3-(4-fluorophenyl)-3-hydroxypropyl]-4-oxoazetidin-2-yl}-biphenyl-N,N-dimethylbiphenyl-4-sulfonamide] it is 8%; for `O=C1[C@H](CC[C@H](O)c2ccc(F)cc2)[C@@H](c2ccc(-c3cccc(CO)c3)cc2)N1c1ccc(F)cc1` [Example 16, (3R,4S)-1-(4-Fluorophenyl)-3-[(3S)-3-(4-fluorophenyl)-3-hydroxypropyl]-4-(3'-(hydroxymethyl)biphenyl-4-yl)azetidin-2-one] it is 72%. Turning to `CN(C)c1ccc(-c2ccc([C@@H]3[C@@H](CC[C@H](O)c4ccc(F)cc4)C(=O)N3c3ccc(F)cc3)cc2)cc1` [Example 17, (3R,4S)-4-[4'(dimethylamino)biphenyl-4-yl]-1-(4-fluorophenyl)-3-[(3S)-3-(4-fluorophenyl)-3-hydroxypropyl]azetidin-2-one], 1 mg/kg produced 43% inhibition.

`O=C1C(CCC(O)c2ccc(F)cc2)C(c2ccc(-c3ccc(CO)cc3)cc2)N1c1ccc(F)cc1` (centres unmarked) [Example 18] returned an inhibition at 1 mg/kg of 48%.

On to `O=C1[C@H](CC[C@H](O)c2ccc(F)cc2)[C@@H](c2ccc(-c3cc(O)ccc3Br)cc2)N1c1ccc(F)cc1` [Example 19, (3R,4S)-4-(2'-bromo-5'-hydroxybiphenyl-4-yl)-1-(4-fluorophenyl)-3-[(3S)-3-(4-fluorophenyl)-3-hydroxypropyl]azetidin-2-one], for which the inhibition at 1 mg/kg was determined as 66%. Same read-out and setting: the figure for `O=C(O)[C@@H]1O[C@H](Oc2cccc(-c3ccc([C@@H]4[C@@H](CC[C@H](O)c5ccc(F)cc5)C(=O)N4c4ccc(F)cc4)cc3)c2)[C@@H](O)[C@H](O)[C@H]1O` [Example 20, 4'-{(2S,3R)-1-(4-fluorophenyl)-3-[(3S)-3-(4-fluorophenyl)-3-hydroxypropyl]-4-oxoazetidin-2-yl}biphenyl-3-yl β-L-glucopyranosiduronic acid] is 59%; for `O=C(O)c1cccc(-c2ccc([C@@H]3[C@@H](CC[C@H](O)c4ccc(F)cc4)C(=O)N3c3ccc(F)cc3)cc2)c1` [Example 21, 4'-{(2S,3R)-1-(4-fluorophenyl)3-[(3S)-3-(4-fluorophenyl)-3-hydroxypropyl]-4-oxoazetidin-2-yl]biphenyl-3-carboxylic acid] it is 68%.

In turn, `O=C(O)c1ccc(-c2ccc([C@@H]3[C@@H](CC[C@H](O)c4ccc(F)cc4)C(=O)N3c3ccc(F)cc3)cc2)cc1` [Example 22, 4'-{(2S,3R)-1-(4-fluorophenyl)3-[(3S)-3-(4-fluorophenyl)-3-hydroxypropyl]-4-oxoazetidin-2-yl]biphenyl-4-carboxylic acid] displayed an inhibition at 1 mg/kg of 52%. On to `Nc1ccc(-c2ccc([C@@H]3[C@@H](CC[C@H](O)c4ccc(F)cc4)C(=O)N3c3ccc(F)cc3)cc2)cc1` [Example 28, (3R,4S)-1-(4-fluorophenyl)-3-[(3S)-3-(4-fluorophenyl)-3-hydroxypropyl]-4-(4'-aminobiphenyl-4-yl)azetidin-2-one], for which the inhibition at 1 mg/kg was 56%.

Still in this assay, the particulars now being: po, Table 2, perorally, 1 mg/kg, 3H levels in serum three hours after 3H-cholesterol, versus vehicle only control.
`O=C1[C@H](CC[C@H](O)c2ccc(F)cc2)[C@@H](c2ccc(-c3cccc(O)c3)cc2O)N1c1ccccc1` [Example 42, (3R,4S)-4-(3,3'-Dihydroxybiphenyl-4-yl)-3-[(3S)-3-(4-fluorophenyl)-3-hydroxypropyl]-1-phenylazetidin-2-one] yielded an inhibition at 1 mg/kg of 87%.

Consider `O=C1[C@H](CC[C@H](O)c2ccc(F)cc2)[C@@H](c2cccc(-c3cccc(O)c3)c2)N1c1ccc(F)cc1` [Example 44, (3R,4S)-1-(4-fluorophenyl)-3-[(3S)-3-(4-fluorophenyl)-3-hydroxypropyl]-4-(3'-hydroxybiphenyl-3-yl)azetidin-2-one], for which the inhibition at 1 mg/kg came to 24%. On the same count and under the same terms, the figure for `O=C1C(CCC(O)c2ccc(F)cc2)C(c2cccc(-c3ccc(O)cc3)c2)N1c1ccc(F)cc1` (centres unmarked) [Example 46] is 30%.

One may read the inhibition as the relative decrease from the control value, in per cent. Higher therefore signals a response far below the control.
